In PubChem BioAssay (NCI):
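Assay format: 96-well plates, 48-hour exposure. TGI is the concentration that stops growth completely.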

Key:
Experiment in all cases: growth of human tumour cells (NCI), 48 h
[1] = system: SN12C renal
[2] = system: CCRF-CEM leukemia
[3] = system: SW-620 colon
[4] = system: NCI-H522 lung
[5] = system: DU-145 prostate
[6] = system: KM12 colon
[7] = system: OVCAR-3 ovarian
[8] = system: PC-3 prostate
[9] = system: MALME-3M melanoma
[10] = system: LOX IMVI melanoma
[11] = system: NCI-H460 lung
[12] = system: U251 CNS
[13] = system: HL-60(TB) leukemia
[14] = system: MDA-MB-435
[15] = system: EKVX NSCLC
[16] = system: SR leukemia
[17] = system: HT29 colon
[18] = system: HCC-2998 colon
[19] = system: OVCAR-4 ovarian
[20] = system: SK-OV-3 ovarian
[21] = system: MCF7 breast
[22] = system: A549 NSCLC
[23] = system: TK-10 renal
[24] = system: COLO 205 colon
[25] = system: HS 578T breast
[26] = system: IGROV1 ovarian
[27] = system: ACHN renal
[28] = system: SF-539 CNS
[29] = system: HCT-15 colon
[30] = system: RPMI-8226 leukemia
[31] = system: SNB-19 CNS
[32] = system: NCI-H23 lung
[33] = system: OVCAR-8 ovarian
[34] = system: SK-MEL-2 melanoma
[35] = system: UACC-257 melanoma
[36] = system: SF-295 CNS
[37] = system: M14 melanoma
[38] = system: NCI/ADR-RES ovarian
[39] = system: HCT-116 colon
[40] = system: K-562 leukemia
[41] = system: HOP-62 NSCLC
[42] = system: SK-MEL-28 melanoma
[43] = system: MOLT-4 leukemia
[44] = system: OVCAR-5 ovarian
[45] = system: BT-549 breast
[46] = system: HOP-92 NSCLC
[47] = system: SF-268 CNS
[48] = system: UO-31 renal
[49] = system: 786-0 renal
[50] = system: SK-MEL-5 melanoma
[51] = system: T-47D breast
[52] = system: MDA-N
[53] = system: NCI-H226 lung
[54] = system: RXF 393 renal
[55] = system: MDA-MB-231 breast
[56] = system: A498 renal
[57] = system: UACC-62 melanoma
[58] = system: CAKI-1 renal
[59] = system: SNB-75 CNS

`Cc1[nH]c(=O)nc2nc3ccc(Cl)cc3c(N(CCO)CCO)c12` showed a TGI [1] of over 100 µM, a TGI [2] of over 100 µM and a TGI [3] of over 100 µM. It also gave a TGI [4] of 48 µM, a TGI [5] of over 100 µM and a TGI [6] of over 100 µM. For the same molecule, the TGI [7] was over 100 µM, the TGI [8] was over 100 µM and the TGI [9] was over 100 µM. For the same molecule, the TGI [10] was over 100 µM, the TGI [11] was over 100 µM and the TGI [12] was over 100 µM. The TGI [13] was over 100 µM, the TGI [14] was over 100 µM and the TGI [15] was over 100 µM. For the same molecule, the TGI [16] was over 100 µM, the TGI [17] was over 100 µM and the TGI [18] was over 100 µM. For the same molecule, the TGI [19] was over 100 µM, the TGI [20] was over 100 µM and the TGI [21] was over 100 µM. The TGI [22] was over 100 µM, the TGI [23] was over 100 µM and the TGI [24] was over 100 µM. It also gave a TGI [25] of over 100 µM, a TGI [26] of over 100 µM and a TGI [27] of over 100 µM. For the same molecule, the TGI [28] was over 100 µM, the TGI [29] was over 100 µM and the TGI [30] was over 100 µM. The TGI [31] was over 100 µM, the TGI [32] was over 100 µM and the TGI [33] was over 100 µM. It also gave a TGI [34] of over 100 µM, a TGI [35] of over 100 µM and a TGI [36] of over 100 µM. The TGI [37] was over 100 µM, the TGI [38] was over 100 µM and the TGI [39] was over 100 µM. It also gave a TGI [40] of over 100 µM, a TGI [41] of over 100 µM and a TGI [42] of over 100 µM. The TGI [43] was over 100 µM, the TGI [44] was over 100 µM and the TGI [45] was over 100 µM. It also gave a TGI [46] of over 100 µM, a TGI [47] of over 100 µM and a TGI [48] of over 100 µM. The TGI [49] was over 100 µM, the TGI [50] was over 100 µM and the TGI [51] was over 100 µM. The TGI [52] was over 100 µM, the TGI [53] was over 100 µM and the TGI [54] was over 100 µM. The TGI [55] was over 100 µM, the TGI [56] was over 100 µM and the TGI [57] was over 100 µM. It also gave a TGI [58] of over 100 µM.
With `CCC(N)(C(=O)O)C(C)C` (centres undefined) the TGI [1] was over 100 µM, the TGI [2] was over 100 µM and the TGI [3] was over 100 µM. For the same molecule, the TGI [4] was over 100 µM, the TGI [5] was over 100 µM and the TGI [6] was over 100 µM. It also gave a TGI [7] of over 100 µM, a TGI [8] of over 100 µM and a TGI [9] of over 100 µM. It also gave a TGI [10] of over 100 µM, a TGI [11] of over 100 µM and a TGI [12] of over 100 µM. The TGI [13] was over 100 µM, the TGI [14] was over 100 µM and the TGI [15] was over 100 µM. The TGI [16] was over 100 µM, the TGI [17] was over 100 µM and the TGI [18] was over 100 µM. The TGI [19] was over 100 µM, the TGI [20] was over 100 µM and the TGI [21] was over 100 µM. For the same molecule, the TGI [22] was over 100 µM, the TGI [23] was over 100 µM and the TGI [24] was over 100 µM. The TGI [25] was over 100 µM, the TGI [26] was over 100 µM and the TGI [27] was over 100 µM. It also gave a TGI [28] of over 100 µM, a TGI [29] of over 100 µM and a TGI [30] of over 100 µM. For the same molecule, the TGI [31] was over 100 µM, the TGI [32] was over 100 µM and the TGI [33] was over 100 µM. The TGI [34] was over 100 µM, the TGI [35] was over 100 µM and the TGI [36] was over 100 µM. For the same molecule, the TGI [37] was over 100 µM, the TGI [38] was over 100 µM and the TGI [39] was over 100 µM. The TGI [40] was over 100 µM, the TGI [41] was over 100 µM and the TGI [42] was over 100 µM. For the same molecule, the TGI [44] was over 100 µM, the TGI [45] was over 100 µM and the TGI [46] was over 100 µM. The TGI [47] was over 100 µM, the TGI [59] was over 100 µM and the TGI [48] was over 100 µM. It also gave a TGI [49] of over 100 µM, a TGI [50] of over 100 µM and a TGI [51] of over 100 µM. It also gave a TGI [52] of over 100 µM, a TGI [53] of over 100 µM and a TGI [54] of over 100 µM. For the same molecule, the TGI [55] was over 100 µM, the TGI [56] was over 100 µM and the TGI [57] was over 100 µM. The TGI [58] was over 100 µM.
Work on `Clc1ccccc1/C=C/c1ccnc2ccccc12` yielded a TGI [1] of 30.1 µM, a TGI [2] of 50.3 µM and a TGI [3] of 35.6 µM. For the same molecule, the TGI [4] was 31.7 µM, the TGI [5] was 29 µM and the TGI [6] was 31.6 µM. It also gave a TGI [7] of 28 µM, a TGI [8] of 30.6 µM and a TGI [9] of 35.4 µM. The TGI [10] was 35.2 µM, the TGI [11] was 31.7 µM and the TGI [12] was 31.4 µM. The TGI [13] was 45 µM, the TGI [14] was 29.2 µM and the TGI [15] was 17.9 µM. For the same molecule, the TGI [16] was 46.8 µM, the TGI [17] was 29.8 µM and the TGI [18] was 32.2 µM. The TGI [19] was 31.3 µM, the TGI [20] was 32.8 µM and the TGI [21] was 26.7 µM. The TGI [22] was 29.9 µM, the TGI [23] was 32.1 µM and the TGI [24] was 26.7 µM. It also gave a TGI [25] of 53 µM, a TGI [26] of 32.7 µM and a TGI [27] of 30.1 µM. It also gave a TGI [28] of 34.9 µM, a TGI [29] of 28.1 µM and a TGI [30] of 36.3 µM. It also gave a TGI [31] of 31.3 µM, a TGI [32] of 27.5 µM and a TGI [33] of 36.3 µM. For the same molecule, the TGI [34] was 34.2 µM, the TGI [35] was 28.5 µM and the TGI [36] was 29.2 µM. The TGI [37] was 32.1 µM, the TGI [38] was 32.9 µM and the TGI [39] was 29.1 µM. It also gave a TGI [40] of 38.6 µM, a TGI [41] of 31.9 µM and a TGI [42] of 34.9 µM. For the same molecule, the TGI [44] was 34.5 µM, the TGI [45] was 29 µM and the TGI [46] was 24.2 µM. For the same molecule, the TGI [47] was 40.2 µM, the TGI [59] was 29 µM and the TGI [48] was 31 µM. The TGI [49] was 29.2 µM, the TGI [50] was 28.4 µM and the TGI [51] was 30.2 µM. The TGI [52] was 27.7 µM, the TGI [53] was 33.3 µM and the TGI [54] was 31 µM. The TGI [55] was 41.9 µM, the TGI [56] was 33.1 µM and the TGI [57] was 29 µM. The TGI [58] was 30.5 µM.
